Data published in the NIST ThermoML archive (doi:10.1021/je300345m).

Experiment: xn = mol fraction of the nth substance listed
Details: Liquid, Vibrating tube method

OCCNCCO [diethanolamine] + O
mass density [kg/m3]
Details	x1 = 0.0684	x1 = 0.1025	x1 = 0.1463	x1 = 0.2045	x1 = 0.2856	x1 = 0.4067	x1 = 0.6066	x1 = 1
298.15 K, 100 kPa	1034	1047.2	1059.5	1071.4	1081	1088	1092.2	1093.6
303.15 K, 100 kPa	1031.8	1044.8	1056.9	1068.5	1077.9	1085	1088.9	1090.4
308.15 K, 100 kPa	1029.7	1042.4	1054.2	1065.6	1074.9	1081.8	1085.8	1087.1
313.15 K, 100 kPa	1027.2	1039.6	1051.3	1062.6	1071.7	1078.7	1082.7	1083.8
318.15 K, 100 kPa	1024.9	1037	1048.4	1059.5	1068.6	1075.5	1079.5	1080.6
323.15 K, 100 kPa	1022.2	1034.2	1045.4	1056.6	1065.3	1072.2	1076.2	1077.4
328.15 K, 100 kPa	1019.5	1031.4	1042.4	1053.2	1062.1	1068.9	1073	1074.1
333.15 K, 100 kPa	1016.6	1028.3	1039.2	1049.9	1058.8	1065.6	1069.6	1070.8
338.15 K, 100 kPa	1013.8	1025.2	1036	1046.5	1055.3	1062.2	1066.3	1067.4
343.15 K, 100 kPa	1010.6	1022	1032.6	1043.1	1051.8	1058.8	1062.9	1064
348.15 K, 100 kPa	1007.5	1018.8	1029.3	1039.7	1048.3	1055.3	1059.4	1060.6
353.15 K, 100 kPa	1004.2	1015.3	1025.8	1036	1044.8	1051.7	1055.9	1057.2
358.15 K, 100 kPa	1000.8	1011.9	1022.3	1032.5	1041.1	1048	1052.4	1053.7
363.15 K, 100 kPa	997.3	1008.3	1018.6	1028.7	1037.2	1044.4	1048.8	1050.1
373.15 K, 700 kPa	990.2	1000.9	1011.5	1021.2	1029.9	1037.2	1041.8	1043.3
383.15 K, 700 kPa	982.3	992.9	1003.3	1012.9	1021.7	1028.9	1033.8	1035.5
393.15 K, 700 kPa	974.2	984.7	995.1	1004.7	1013.5	1020.9	1026	1028.1
403.15 K, 700 kPa	965.8	976.3	986.7	996.2	1005.1	1012.8	1018.2	1020.5
413.15 K, 700 kPa	957.1	967.5	977.9	987.5	996.5	1004.5	1010.2	1012.9
423.15 K, 700 kPa	947.9	958.1	969	978.2	987.2	995.4	1001.7	1004.8

CN(CCO)CCO [N-methyldiethanolamine] + O
mass density [kg/m3]
Details	x1 = 0.0609	x1 = 0.0916	x1 = 0.1313	x1 = 0.1848	x1 = 0.2608	x1 = 0.3768	x1 = 0.5764	x1 = 1
298.15 K, 100 kPa	1025.2	1035.6	1043.3	1049.7	1053.6	1052.3	1046	1036
303.15 K, 100 kPa	1022.8	1032.8	1040.9	1046.1	1049.9	1048.6	1042.3	1032.4
308.15 K, 100 kPa	1020.3	1029.9	1037.6	1042.5	1046.2	1044.8	1038.4	1028.6
313.15 K, 100 kPa	1017.7	1026.9	1034.3	1038.8	1042.4	1040.9	1034.6	1024.8
318.15 K, 100 kPa	1014.9	1023.8	1030.8	1034.7	1038.5	1037	1030.8	1021
323.15 K, 100 kPa	1012	1020.6	1027.3	1031.1	1034.6	1033.1	1026.9	1017.2
328.15 K, 100 kPa	1009	1017.2	1023.7	1027.3	1030.6	1029.1	1022.9	1013.3
333.15 K, 100 kPa	1005.9	1013.8	1020.1	1023.6	1026.6	1025	1019	1009.4
338.15 K, 100 kPa	1002.7	1010.3	1016.3	1019.8	1022.5	1020.9	1015	1005.6
343.15 K, 100 kPa	999.3	1006.7	1012.5	1015.9	1018.4	1016.8	1010.9	1001.7
348.15 K, 100 kPa	995.9	1003	1008.5	1011.9	1014.2	1012.6	1006.9	997.7
353.15 K, 100 kPa	992.3	999.2	1004.6	1007.7	1009.9	1008.4	1002.7	993.8
358.15 K, 100 kPa	988.7	995.3	1000.4	1003.5	1005.2	1004.1	998.6	989.9
363.15 K, 100 kPa	984.9	991.3	996.3	999.2	1000.9	999.8	994.4	985.9
373.15 K, 700 kPa	977.2	982.9	987.6	990.7	992	990.6	985.7	978.6
383.15 K, 700 kPa	968.8	974.1	978.5	981.4	982.6	981.4	976.9	970.3
393.15 K, 700 kPa	960.2	965.2	969.3	972.1	973.3	972.2	968.1	962.1
403.15 K, 700 kPa	951.2	955.9	959.8	962.5	963.7	962.9	959.3	953.9
413.15 K, 700 kPa	941.9	946.4	950.1	952.7	954	953.4	950.4	945.6
423.15 K, 700 kPa	931.9	936.1	939.6	942.3	943.6	943.4	940.9	937
